Like-named read-outs stand apart in the source and are kept apart here.
Experiments:
[1] = tested on: murine leukemia (L1210) cells; assay: Cytostatic activity, L1210 cell proliferation; assay type: cell-based; details: Mus musculus, read-out: IC50 L1210
Description: (§1) All assays were performed in 96-well microtiter plates. To each well were added (5–7.5) × 10^4 tumor cells and a given amount of the test compound. The cells were allowed to proliferate for 48 h (murine leukemia L1210 cells) or 72 h (human lymphocytic CEM and human cervix carcinoma HeLa cells) at 37 °C in a humidified CO2-controlled atmosphere. At the end of the incubation period, the cells were counted in a Coulter counter.

[2] = tested on: human T-lymphocyte (CEM) cells; assay: Cytostatic activity, CEM cell proliferation; assay type: cell-based; details: CCRF-CEM, 72 h, read-out: IC50 CEM
Description: as §1

[3] = tested on: human cervix carcinoma cells (HeLa); assay: Cytostatic activity, HeLa cell proliferation; assay type: cell-based; details: 72 h, read-out: IC50 HeLa
Description: as §1

[4] = tested on: human dermal microvascular endothelial HMEC-1 cells; assay: Cytostatic activity, HMEC-1 cell proliferation; assay type: cell-based
TK+ VZV strain = assay: microbe, parasite or virus in culture; assay type: cell-based, varicella-zoster virus (VZV) strain Oka; details: Human alphaherpesvirus 3, HEL, read-out: Antiviral Activity EC50, TK+ VZV Strain, HEL cell cultures; concentration reducing virus plaque formation by 50%
TK− VZV strain = assay: microbe, parasite or virus in culture; assay type: cell-based, varicella-zoster virus (VZV) strain 07−1; details: Human alphaherpesvirus 3, HEL, read-out: Antiviral Activity EC50, TK− VZV Strain, HEL cell cultures; concentration reducing virus plaque formation by 50%
HEL cells = assay: Cytotoxicity, cell morphology (MCC) in HEL cells; assay type: cell-based, human; details: minimum cytotoxic concentration causing microscopically detectable alteration of cell morphology
From the text: The cytotoxicity of the tested compounds toward the uninfected host cells was defined as the minimum cytotoxic concentration (MCC) that causes a microscopically detectable alteration of normal cell morphology.

IC50 ([1]; L1210, cell proliferation, 48 h) [µM]	IC50 ([3]; cell proliferation) [µM]	SMILES	IC50 ([1]; L1210, 48 h) [µM]	IC50 [2] [µM]	IC50 [3] [µM]	IC50 ([4]; HMEC-1, read-out: IC50 HMEC-1) [µM]	melting point [°C]	EC50 (TK+ VZV strain) [µM]	EC50 (TK− VZV strain) [µM]	Cytotoxicity, Cell Morphology (MCC) (HEL cells) [μM]	IC50 ([2]; cell proliferation) [µM]	IC50 ([4]; HMEC-1, cell proliferation, read-out: IC50 HMEC-1) [µM]
		CCOP(=O)(CNC(=O)Cn1cc(CN2C(=O)c3cccc4cc([N+](=O)[O-])cc(c34)C2=O)nn1)OCC [Compound 16i, Diethyl 2-{4-[(5-Nitro-1,3-dioxo-1H-benzo[de]isoquinolin-2(3H)-yl)methyl]-1H-1,2,3-triazol-1-yl}acetamido-methylphosphonate]	> 250	> 250	86 ± 6	> 250	217 to 219					
		CCOP(=O)(COCCn1cc(CN2C(=O)c3cccc4cccc(c34)C2=O)nn1)OCC [Compound 14g, Diethyl 2-{4-[(1,3-Dioxo-1H-benzo[de]isoquinolin-2(3H)-yl)methyl]-1H-1,2,3-triazol-1-yl}ethoxy-methylphosphonate]	> 250	168 ± 29	215 ± 49	≥ 250	154 to 155					
		CCOP(=O)(CNC(=O)Cn1cc(CN2C(=O)c3cccc4c(Br)ccc(c34)C2=O)nn1)OCC [Compound 15i, Diethyl 2-{4-[(6-Bromo-1,3-dioxo-1H-benzo[de]isoquinolin-2(3H)-yl)methyl]-1H-1,2,3-triazol-1-yl}acetamido-methylphosphonate]	31 ± 2	137 ± 72	> 250	> 250	173 to 174					
		CCOP(=O)(CCCn1cc(CN2C(=O)c3cccc4cc(N)cc(c34)C2=O)nn1)OCC [Compound 17c, Diethyl 3-{4-[(5-Amino-1,3-dioxo-1H-benzo[de]isoquinolin-2(3H)-yl)methyl]-1H-1,2,3-triazol-1-yl}propylphosphonate]	> 250	≥ 250	≥ 250		180 to 182					
		CCOP(=O)(CC(O)Cn1cc(CN2C(=O)c3cccc4cccc(c34)C2=O)nn1)OCC (stereo not shown) [Compound 14f, Diethyl 3-{4-[(1,3-Dioxo-1H-benzo[de]isoquinolin-2(3H)-yl)methyl]-1H-1,2,3-triazol-1-yl}-2-hydroxypropylphosphonate]	> 250	158 ± 4	168 ± 26	> 250	> 260					
		CCOP(=O)(OCC)C(O)Cn1cc(CN2C(=O)c3cccc4c(Br)ccc(c34)C2=O)nn1 (stereo not shown) [Compound 15e, Diethyl 2-{4-[(6-Bromo-1,3-dioxo-1H-benzo[de]isoquinolin-2(3H)-yl)methyl]-1H-1,2,3-triazol-1-yl}-1-hydroxyethylphosphonate]	42 ± 15	196 ± 60	> 250	> 250	198 to 200					
		CCOP(=O)(CCOCCn1cc(CN2C(=O)c3cccc4cc([N+](=O)[O-])cc(c34)C2=O)nn1)OCC [Compound 16h, Diethyl 2-(2-{4-[(5-Nitro-1,3-dioxo-1H-benzo[de]isoquinolin-2(3H)-yl)methyl]-1H-1,2,3-triazol-1-yl}ethoxy)ethylphosphonate]	64 ± 11	66	56 ± 16	152 ± 1		40.9	64.5	>100		
		CCOP(=O)(CCCCn1cc(CN2C(=O)c3cccc4cc(N)cc(c34)C2=O)nn1)OCC [Compound 17d, Diethyl 4-{4-[(5-Amino-1,3-dioxo-1H-benzo[de]isoquinolin-2(3H)-yl)methyl]-1H-1,2,3-triazol-1-yl}butylphosphonate]	> 250	> 250	116 ± 60		218 to 220					
		CCOP(=O)(CC(O)Cn1cc(CN2C(=O)c3cccc4cc(N)cc(c34)C2=O)nn1)OCC (stereo not shown) [Compound 17f, Diethyl 3-{4-[(5-Amino-1,3-dioxo-1H-benzo[de]isoquinolin-2(3H)-yl)methyl]-1H-1,2,3-triazol-1-yl}-2-hydroxypropylphosphonate]	> 250	> 250	130 ± 77		222 to 224					
		CCOP(=O)(CCn1cc(CN2C(=O)c3cccc4cc(N)cc(c34)C2=O)nn1)OCC [Compound 17b, Diethyl 2-{4-[(5-Amino-1,3-dioxo-1H-benzo[de]isoquinolin-2(3H)-yl)methyl]-1H-1,2,3-triazol-1-yl}ethylphosphonate]	> 250	120 ± 7	69 ± 12							
> 250	48 ± 8	C#CCN1C(=O)c2cccc3cccc(c23)C1=O [Compound 7, 2-(Prop-2-yn-1-yl)-1H-benzo[de]isoquinoline-1,3(2H)-dione]					239 to 240				206 ± 42	138 ± 38
		CCOP(=O)(CNC(=O)Cn1cc(CN2C(=O)c3cccc4cc(N)cc(c34)C2=O)nn1)OCC [Compound 17i, Diethyl 2-{4-[(5-Amino-1,3-dioxo-1H-benzo[de]isoquinolin-2(3H)-yl)methyl]-1H-1,2,3-triazol-1-yl}acetamido-methylphosphonate]	> 250	> 250	112 ± 58		222 to 224					
		CCOP(=O)(CCCn1cc(CN2C(=O)c3cccc4c(Br)ccc(c34)C2=O)nn1)OCC [Compound 15c, Diethyl 3-{4-[(6-Bromo-1,3-dioxo-1H-benzo[de]isoquinolin-2(3H)-yl)methyl]-1H-1,2,3-triazol-1-yl}propylphosphonate]	20 ± 3	52 ± 34	62 ± 1	152	118 to 120					
		CCOP(=O)(Cn1cc(CN2C(=O)c3cccc4cc(N)cc(c34)C2=O)nn1)OCC [Compound 17a, Diethyl {4-[(5-Amino-1,3-dioxo-1H-benzo[de]isoquinolin-2(3H)-yl)methyl]-1H-1,2,3-triazol-1-yl}methylphosphonate]	177 ± 76	214 ± 5	101 ± 78							
		CCOP(=O)(OCC)C(O)Cn1cc(CN2C(=O)c3cccc4cc(N)cc(c34)C2=O)nn1 (stereo not shown) [Compound 17e, Diethyl 2-{4-[(5-Amino-1,3-dioxo-1H-benzo[de]isoquinolin-2(3H)-yl)methyl]-1H-1,2,3-triazol-1-yl}-1-hydroxyethylphosphonate]	> 250	> 250	72 ± 58		170 to 172					
		CCOP(=O)(COCCn1cc(CN2C(=O)c3cccc4cc(N)cc(c34)C2=O)nn1)OCC [Compound 17g, Diethyl 2-{4-[(5-Amino-1,3-dioxo-1H-benzo[de]isoquinolin-2(3H)-yl)methyl]-1H-1,2,3-triazol-1-yl}ethoxy-methylphosphonate]	> 250	> 250	97 ± 42		221 to 223					
		CCOP(=O)(COCCn1cc(CN2C(=O)c3cccc4c(Br)ccc(c34)C2=O)nn1)OCC [Compound 15g, Diethyl 2-{4-[(6-Bromo-1,3-dioxo-1H-benzo[de]isoquinolin-2(3H)-yl)methyl]-1H-1,2,3-triazol-1-yl}ethoxy-methylphosphonate]	24 ± 3	66 ± 20	84 ± 16	152 ± 1						
		CCOP(=O)(CCn1cc(CN2C(=O)c3cccc4cccc(c34)C2=O)nn1)OCC [Compound 14b, Diethyl 2-{4-[(1,3-Dioxo-1H-benzo[de]isoquinolin-2(3H)-yl)methyl]-1H-1,2,3-triazol-1-yl}ethylphosphonate]	> 250	148 ± 59	204 ± 65	> 250	63 to 64					
		CCOP(=O)(CCOCCn1cc(CN2C(=O)c3cccc4cc(N)cc(c34)C2=O)nn1)OCC [Compound 17h, Diethyl 2-(2-{4-[(5-Amino-1,3-dioxo-1H-benzo[de]isoquinolin-2(3H)-yl)methyl]-1H-1,2,3-triazol-1-yl}ethoxy)ethylphosphonate]	142 ± 2	109 ± 3	66 ± 3		180 to 183					
		CCOP(=O)(Cn1cc(CN2C(=O)c3cccc4cccc(c34)C2=O)nn1)OCC [Compound 14a]	> 250	187 ± 25	> 250	> 250	110 to 111					
		CCOP(=O)(Cn1cc(CN2C(=O)c3cccc4c(Br)ccc(c34)C2=O)nn1)OCC [Compound 15a, Diethyl {4-[(6-Bromo-1,3-dioxo-1H-benzo[de]isoquinolin-2(3H)-yl)methyl]-1H-1,2,3-triazol-1-yl}methylphosphonate]	28 ± 1	60 ± 27	88 ± 5	185 ± 40	158 to 159					
		CCOP(=O)(CNC(=O)Cn1cc(CN2C(=O)c3cccc4cccc(c34)C2=O)nn1)OCC [Compound 14i, Diethyl 2-{4-[(1,3-Dioxo-1H-benzo[de]isoquinolin-2(3H)-yl)methyl]-1H-1,2,3-triazol-1-yl}acetamido-methylphosphonate]	> 250	≥ 250	> 250	> 250	170 to 171					

Reference: paper PMC6273621, “Synthesis and the Biological Activity of Phosphonylated 1,2,3-Triazolenaphthalimide Conjugates” (Molecules, 2016)
